Measurements as given in BindingDB's records for doi:10.7270/Q2416VG3 (Nmmlsc, 2010).

What follows are molecules tested against T1, Regulator of G-protein signaling 7 (Homo sapiens, UniProt P49802) (assay: RGS7-Galphao binding modulators, SAR follow-up, biochemical, multiplexed bead flow cytometry, SAR compounds (AID 2296)). Conditions: not given.
T1 sequence (P49802 whole entry): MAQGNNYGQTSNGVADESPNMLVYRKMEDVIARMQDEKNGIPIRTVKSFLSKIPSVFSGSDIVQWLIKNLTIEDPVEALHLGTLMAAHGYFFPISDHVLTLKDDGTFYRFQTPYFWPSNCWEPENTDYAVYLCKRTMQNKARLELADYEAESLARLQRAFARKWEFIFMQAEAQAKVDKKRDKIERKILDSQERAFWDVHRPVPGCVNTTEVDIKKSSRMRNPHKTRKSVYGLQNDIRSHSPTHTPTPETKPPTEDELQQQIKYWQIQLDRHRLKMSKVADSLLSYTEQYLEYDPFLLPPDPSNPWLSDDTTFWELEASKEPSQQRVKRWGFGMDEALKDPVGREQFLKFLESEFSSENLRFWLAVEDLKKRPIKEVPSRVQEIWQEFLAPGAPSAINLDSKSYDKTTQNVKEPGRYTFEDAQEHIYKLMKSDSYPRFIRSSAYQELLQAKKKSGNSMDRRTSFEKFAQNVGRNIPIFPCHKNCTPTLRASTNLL

Compound | EC50 [nM]
CN=c1scc(C)n1N=Cc1ccc(O)c(O)c1O [(4E)-2,3-dihydroxy-4-[[(4-methyl-2-methylimino-1,3-thiazol-3-yl)amino]methylidene]cyclohexa-2,5-dien-1-one] | 244
CCN=c1scc(C)n1N=Cc1ccc(O)c(O)c1O | 449
O=C(NCCCN1CCOCC1)c1sc2cc([N+](=O)[O-])ccc2c1Cl [3-chloranyl-N-(3-morpholin-4-ylpropyl)-6-nitro-1-benzothiophene-2-carboxamide] | > 30000
Cc1cc(C)c2c(=O)n(CC(=O)N3CCN(c4ccccc4)CC3)ccc2n1 [2,4-dimethyl-6-[2-oxidanylidene-2-(4-phenylpiperazin-1-yl)ethyl]-1,6-naphthyridin-5-one] | 67
NS(=O)(=O)c1ccc(N=NCc2ccc(O)c(O)c2O)c([N+](=O)[O-])c1 [4-[[(E)-(2,3-dihydroxy-4-oxo-1-cyclohexa-2,5-dienylidene)methyl]hydrazo]-3-nitrobenzenesulfonamide] | 141
Cc1cccc(N2CCN(C(=O)COc3nsc4nc(C)cc(C)c34)CC2C)c1 (stereo unspecified) | > 30000
Cc1cccc(N2CCN(C(=O)Cn3sc4nc(C)cc(C)c4c3=O)CC2C)c1 (stereo unspecified) [2-[2-keto-2-[3-methyl-4-(m-tolyl)piperazino]ethyl]-4,6-dimethyl-isothiazolo[5,4-b]pyridin-3-one] | > 30000
Cc1cccc(N2CCN(C(=O)COc3noc4nc(C)cc(C)c34)CC2C)c1 (stereo unspecified) [2-[(4,6-dimethyl-[1,2]oxazolo[5,4-b]pyridin-3-yl)oxy]-1-[3-methyl-4-(3-methylphenyl)piperazin-1-yl]ethanone] | > 30000
O=C(COc1ccccc1C(=O)NN=Cc1ccc(O)c(O)c1)NN=Cc1ccc(O)c(O)c1 [N''-[(Z)-(3-hydroxy-4-oxo-1-cyclohexa-2,5-dienylidene)methyl]-2-[2-[[(Z)-(3-hydroxy-4-oxo-1-cyclohexa-2,5-dienylidene)methyl]hydrazo]-2-oxoethoxy]benzohydrazide] | > 30000
Cc1[nH]n(-c2ccccc2)c(=S)c1C=NCCCN=Cc1c(C)[nH]n(-c2ccccc2)c1=S | 2200
Cc1[nH]n(-c2ccccc2)c(=S)c1/C=N/c1cccc([N+](=O)[O-])c1 [(4E)-5-methyl-4-[(3-nitroanilino)methylene]-2-phenyl-2-pyrazoline-3-thione] | > 30000
O=c1c2ccccc2sn1-c1ccc(S(=O)(=O)N2CCCC2)cc1 [2-(4-pyrrolidin-1-ylsulfonylphenyl)-1,2-benzothiazol-3-one] | > 30000
O=c1c2ccccc2sn1-c1ccccc1 [2-phenyl-1,2-benzothiazol-3-one] | > 30000
CCOC(=O)c1sc(NC(=O)CSc2nnc(Cc3ccccc3)o2)c(C#N)c1C [4-cyano-3-methyl-5-[[1-oxo-2-[[5-(phenylmethyl)-1,3,4-oxadiazol-2-yl]thio]ethyl]amino]-2-thiophenecarboxylic acid ethyl ester] | > 30000
COC(=O)CCC(=O)Nc1sc(C)c(C)c1C(N)=O [4-[(3-carbamoyl-4,5-dimethyl-2-thienyl)amino]-4-keto-butyric acid methyl ester] | > 30000
Cc1cccc(N2CCN(C(=O)CN3CCc4nc(C)cc(C)c4C3=O)CC2C)c1 (stereo unspecified) [KUC103675N] | > 30000
CCN(CC)S(=O)(=O)c1cccc(C(=O)NN=Cc2ccc(O)c(O)c2O)c1 | 381
CCN(CC)S(=O)(=O)c1cccc(-c2n[nH]c(=S)n2N=Cc2ccc(C(=O)OC)cc2)c1 [4-[(E)-[3-[3-(diethylsulfamoyl)phenyl]-5-thioxo-1H-1,2,4-triazol-4-yl]iminomethyl]benzoic acid methyl ester] | > 30000
CN1CCN(C2=C(Cl)C(=O)C(c3cnc(N4CCCCC4)s3)=C(Cl)C2=O)CC1 | 87
Cc1cc(C)c2c(n1)CCN(CC(=O)N1CCN(c3ccccc3)CC1)C2=O [2,4-dimethyl-6-[2-oxidanylidene-2-(4-phenylpiperazin-1-yl)ethyl]-7,8-dihydro-1,6-naphthyridin-5-one] | > 30000
Cc1cccc(N2CCN(C(=O)Cn3ccc4nc(C)cc(C)c4c3=O)CC2C)c1 (stereo unspecified) [2,4-dimethyl-6-[2-[3-methyl-4-(3-methylphenyl)piperazin-1-yl]-2-oxidanylidene-ethyl]-1,6-naphthyridin-5-one] | > 30000
CC(NC(=O)c1sc2cc([N+](=O)[O-])ccc2c1Cl)C(C)(C)C (stereo unspecified) [3-chloranyl-N-(3,3-dimethylbutan-2-yl)-6-nitro-1-benzothiophene-2-carboxamide] | > 30000

Second part, the molecule after the results:

EC50 [nM] | Compound
4410 | CCC(=O)NC(c1ccc(C)cc1)c1cc([N+](=O)[O-])c2cccnc2c1O (stereo unspecified) [MLS000553854]
> 30000 | Cc1cc(Cl)ccc1/N=c1/ssnc1Cl [MLS000539990]
146 | Nc1c(C(=O)NCC2CCCO2)sc2nc3c(c(-c4ccco4)c12)CC/C3=C/c1ccco1 (stereo unspecified) [UNM-0000305796]
421 | O=C(Cc1csc(N2CCOCC2)n1)NN=Cc1ccc(O)c(O)c1O [SMR000369439]
> 30000 | CC(=O)OCCCNc1cc(Sc2nc3ccccc3s2)c2nonc2c1[N+](=O)[O-] [MLS000521052]
1870 | CC1(C)OC(=O)C(=Cc2ccc(-c3ccc(S(N)(=O)=O)cc3)o2)C(=O)O1 [SMR000273939]
356 | COc1ccc(C2=CC(=O)C=CC2=O)cc1 [MLS001029846]
158 | O=C1C(Cl)=C(N2CCCCC2)C(=O)C(Cl)=C1c1cnc(N2CCCCC2)s1 [MLS000550549]

Same assay, conditions: inactive by the depositor's call

EC50 [nM] | Compound
3570 | CCOc1ccccc1-c1c2cc(O)c(=O)cc-2oc2cc(O)c(O)cc12 [MLS000578271]
